Reference: PubChem BioAssay AID493002 (Sanford-Burnham Center for Chemical Genomics, 2010)
Active and inactive are the calls of the source. How the calls were made is not given here.

Tested on: S. cerevisiae tim23-1 mutant growth, luminescence
Test: potency against tim23-1 yeast growth – luminescence, uHTS hits, dose response (AID 493002);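 further: yeast grown roughly 22 hours at 25 °C before the luminescence read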

Compound	IC50
COC(=O)c1ccc2nc(NC(=O)C3CC3)sc2c1	7.12 µM
CCOC(=O)NNc1ccc2nonc2c1[N+](=O)[O-]	6.6 µM
c1ccc(-c2nc(NCc3cccs3)c3ccccc3n2)cc1	12.7 µM
O=C(/C=C/c1ccco1)Nc1scc(-c2ccccc2)c1C(=O)O	13.6 µM
C/C=C/c1ccc(OCCOc2cc(C=O)ccc2OC)c(OC)c1	8.44 µM
CCOC(=O)CSc1c(-c2cccs2)[nH]c2ccccc12	15.2 µM
O=C(N/N=C/C(Br)=C/c1ccccc1)c1cccs1	6.9 µM
N#Cc1c(NC(=O)C2CC2)sc2c1CCCCC2	14.6 µM
Oc1c(Cl)cc(Cl)cc1CNc1nccs1	15.3 µM
O=C(Nc1ccc(-c2ccc(N3CCCCC3)nn2)cc1)c1ccco1	10 µM
COc1ccc(-c2cccc(NC(=O)c3cccs3)c2)nn1	14.2 µM
O=C(NCc1ccc2c(c1)OCO2)c1c(O)nc2sccn2c1=O	6.15 µM
CCOC(=O)c1ccc(NC(=O)/C=C/c2cccs2)cc1	26.6 µM
CCC(C)C(=O)Nc1nc2ccc(OC)cc2s1 (stereo not drawn)	18.1 µM
c1ccc2[nH]c(-c3ccc4c(c3)OCO4)nc2c1	8.63 µM
CN(C)/C=C1/C=C(c2ccccc2)OC1=O	12 µM
c1ccc(-c2cc3ccccc3cn2)cc1	8.34 µM
Cc1ccc2nc(N3CCN(C=O)CC3)nc(-c3ccccc3)c2c1	11.9 µM
Cc1ccc(Nc2cc(C)c3ccc(O)cc3n2)cc1C	11.1 µM
Cc1ccccc1C(=O)Oc1cccc2c(O)cccc12	8.53 µM
Oc1ccccc1C1NN=C(c2ccccc2)S1 (stereo not drawn)	18.3 µM
CCCCS/C(N)=N/N=C/c1ccccc1O	18.2 µM
O=C(CS(=O)(=O)c1ccccc1)Nc1nc(-c2ccc(F)cc2)cs1	14.2 µM
NNC(=O)c1nc(-c2ccccc2)cc(-c2ccccc2)n1	6.65 µM

Compound	IC50
CCOC(=O)C1=C(CSc2nc(CC)c(C)cc2C#N)OC(N)=C(C#N)C1c1ccc(OC)cc1 (stereo not drawn)	17.8 µM
COc1ccc(OC)c(-c2csc(NC(=O)Cc3ccc(F)cc3)n2)c1	9.63 µM
N=C1/C(=C\c2coc3ccccc3c2=O)C(=O)N=C2SC=CN12	8.9 µM
CCOC(=O)/C(=C/c1ccc(OC(=O)c2ccncc2)cc1)C(C)=O	11 µM
O=C(Nc1cccc(Br)c1)C1CCCC1	7.64 µM
Cc1ccc(NC(=O)c2ccc(Cl)c(NC(=O)c3cccs3)c2)cc1	14.5 µM
CC(C)(C)C(=O)c1sc(Nc2ccccc2)nc1N	12 µM
O=C1/C(=C/c2cccs2)Cc2ccccc21	16.1 µM
CC(C(Sc1ccccc1N)c1ccccc1)[N+](=O)[O-] (stereo not drawn)	3.92 µM
O=C(NCCCc1ccccc1)c1c(O)nc2sccn2c1=O	4.63 µM
COc1cccc(Nc2nc3ccc(OC)cc3s2)c1	10.1 µM
Cc1cnc(NC(=O)c2cc3c(s2)CCCC3)s1	14.5 µM
CC1CCCCN1C(=O)Nc1cccc(Cl)c1 (stereo not drawn)	14.1 µM
O=C(Oc1ccc(=O)n(-c2ccccc2)n1)c1ccc(Cl)cc1	11.8 µM
O=C1NN=C(c2ccc(Cl)cc2)CC1c1cccc(Br)c1 (stereo not drawn)	> 100 µM (inactive)
CCOc1cc2c3c(c1)C(C)CC(C)(C)N3C(=O)C2=O (stereo not drawn)	14.1 µM
O=C(Nc1ccc(OC(F)(F)F)cc1)N1CCN(c2ccnc3cc(Cl)ccc23)CC1	10.5 µM
CCOC(=O)c1c(C)oc2c1c(C(c1cccnc1)N1CCCCC1)c(O)c1ccccc12 (stereo not drawn)	21.5 µM
CCCc1nc2c(c(=O)c3ccccc3n2C)c(=O)n1C1CCCCCC1	9.44 µM
Cc1ccn2cc(C(=O)Nc3ccc4c(c3)OCCO4)nc2c1	7.9 µM
C#CCOCCOCCOCCNc1nc(N2CCN(C(=O)CCCCCCCCCCNC(=O)[C@H](CCCCN)n3cc(CCO)nn3)CC2)nc(N2CCN(C(=O)CCCCCCCCCCNC(=O)[C@H](CCCCN)n3cc(C[C@@H](C)CC)nn3)CC2)n1	17.1 µM
CN1C(=O)C(=Cc2ccccc2OS(=O)(=O)c2ccccc2)C(=O)N(C)C1=O	6.59 µM
COC(=O)c1ccc(NC(=O)c2nc(S(=O)(=O)Cc3cccc(C)c3)ncc2Cl)cc1	1.09 µM
CCCCCCn1c(=O)c(-c2ccccc2)c(O)c2ccccc21	8.95 µM
